Reference: PMC10249021 (Journal of the American Chemical Society, 2020)

Test: Thermal stability of oxytocin and analogues at 50 °C by LCMS analysis
Assay type: physicochemical
Conditions: thermal degradation in water at 50 °C; read-out LCMS analysis

- half-life (thermal stability): 93.6 h
Compound: CC[C@H](C)[C@@H]1NC(=O)[C@H](Cc2ccc(O)cc2)NC(=O)[C@@H](N)CSSC[C@@H](C(=O)N2CCC[C@H]2C(=O)N[C@@H](CC(C)C)C(=O)NCC(N)=O)NC(=O)[C@H](CC(N)=O)NC(=O)[C@H](CCC(N)=O)NC1=O [oxytocin]
